Experimental data as given in US20220339143A1, “TAK-925 FOR USE IN TREATING NARCOLEPSY” (Takeda Pharmaceutical Company Limited, priority 2019, published 2022).

Test system: patients with narcolepsy type 1 (NT1)
Assay: Subjective daytime sleepiness as assessed by Karolinska Sleepiness Scale (KSS), single dose (Cohorts 5, 6, 7)
Type: in vivo, human
Procedure: Daytime sleepiness as assessed by the Karolinska Sleepiness Scale (KSS).
Daytime sleepiness as assessed by KSS at predose and hourly until 11 hours after the start of infusion is presented in Table 13 as summary, in Table 14 as ANOVA and in Table 15 as ANOVA of change from baseline.

[1] = Cmpd A 5 mg (N = 6), 9 hr after start of infusion
[2] = Cmpd A 5 mg (N = 6), 10 hr after start of infusion
[3] = Cmpd A 5 mg (N = 6), 11 hr after start of infusion
[4] = Cmpd A 11.2 mg (N = 4), 1 hr after start of infusion
[5] = Cmpd A 11.2 mg (N = 4), 2 hr after start of infusion
[6] = Cmpd A 11.2 mg (N = 4), 3 hr after start of infusion
[7] = Cmpd A 11.2 mg (N = 4), 4 hr after start of infusion
[8] = Cmpd A 11.2 mg (N = 4), 5 hr after start of infusion
[9] = Cmpd A 11.2 mg (N = 4), 6 hr after start of infusion
[10] = Cmpd A 11.2 mg (N = 4), 7 hr after start of infusion
[11] = Cmpd A 11.2 mg (N = 4), 8 hr after start of infusion
[12] = Cmpd A 11.2 mg (N = 4), 9 hr after start of infusion
[13] = Cmpd A 11.2 mg (N = 4), 10 hr after start of infusion
[14] = Cmpd A 11.2 mg (N = 4), 11 hr after start of infusion
[15] = Cmpd A 44.8 mg (N = 4), 1 hr after start of infusion
[16] = Cmpd A 44.8 mg (N = 4), 2 hr after start of infusion
[17] = Cmpd A 44.8 mg (N = 4), 3 hr after start of infusion
[18] = Cmpd A 44.8 mg (N = 4), 4 hr after start of infusion
[19] = Cmpd A 44.8 mg (N = 4), 5 hr after start of infusion
[20] = Cmpd A 44.8 mg (N = 4), 6 hr after start of infusion
[21] = Cmpd A 44.8 mg (N = 4), 7 hr after start of infusion
[22] = Cmpd A 44.8 mg (N = 4), 8 hr after start of infusion
[23] = Cmpd A 44.8 mg (N = 4), 9 hr after start of infusion
[24] = Cmpd A 44.8 mg (N = 4), 10 hr after start of infusion
[25] = Cmpd A 44.8 mg (N = 4), 11 hr after start of infusion

COC(=O)N1CCC[C@H](NS(C)(=O)=O)[C@@H]1CO[C@H]1CC[C@@H](c2ccccc2)CC1 [Compound A, methyl (2R,3S)-3-((methylsulfonyl)amino)-2-(((cis-4-phenylcyclohexyl)oxy)methyl)piperidine-1-carboxylate]
KSS Observed Value at Visit, Median (Cmpd A 5 mg (N = 6), 8 hr after start of infusion): 3.0 | KSS Change from Baseline, Mean [1]: −2.5 | KSS Change from Baseline, Median [1]: −2.5 | KSS Observed Value at Visit, Mean [1]: 2.5 | KSS Observed Value at Visit, Median [1]: 2.5 | KSS Change from Baseline, Mean [2]: −2.3 | KSS Change from Baseline, Median [2]: −2.5 | KSS Observed Value at Visit, Mean [2]: 2.7 | KSS Observed Value at Visit, Median [2]: 2.0 | KSS Change from Baseline, Mean [3]: −1.7 | KSS Change from Baseline, Median [3]: −1.5 | KSS Observed Value at Visit, Mean [3]: 3.3 | KSS Observed Value at Visit, Median [3]: 3.0 | KSS Change from Baseline, Mean [4]: −2.0 | KSS Change from Baseline, Median [4]: −1.0 | KSS Observed Value at Visit, Mean [4]: 1.8 | KSS Observed Value at Visit, Median [4]: 1.5 | KSS Change from Baseline, Mean [5]: −1.5 | KSS Change from Baseline, Median [5]: −1.0 | KSS Observed Value at Visit, Mean [5]: 2.3 | KSS Observed Value at Visit, Median [5]: 2.0 | KSS Change from Baseline, Mean [6]: −1.3 | KSS Change from Baseline, Median [6]: −1.0 | KSS Observed Value at Visit, Mean [6]: 2.5 | KSS Observed Value at Visit, Median [6]: 3.0 | KSS Change from Baseline, Mean [7]: −1.8 | KSS Change from Baseline, Median [7]: −1.0 | KSS Observed Value at Visit, Mean [7]: 2.0 | KSS Observed Value at Visit, Median [7]: 2.0 | KSS Change from Baseline, Mean [8]: −1.8 | KSS Change from Baseline, Median [8]: −1.0 | KSS Observed Value at Visit, Mean [8]: 2.0 | KSS Observed Value at Visit, Median [8]: 2.0 | KSS Change from Baseline, Mean [9]: −1.5 | KSS Change from Baseline, Median [9]: −0.5 | KSS Observed Value at Visit, Mean [9]: 2.3 | KSS Observed Value at Visit, Median [9]: 2.0 | KSS Change from Baseline, Mean [10]: −1.0 | KSS Change from Baseline, Median [10]: −0.5 | KSS Observed Value at Visit, Mean [10]: 2.8 | KSS Observed Value at Visit, Median [10]: 3.0 | KSS Change from Baseline, Mean [11]: −1.5 | KSS Change from Baseline, Median [11]: −1.0 | KSS Observed Value at Visit, Mean [11]: 2.3 | KSS Observed Value at Visit, Median [11]: 2.5 | KSS Change from Baseline, Mean [12]: −1.3 | KSS Change from Baseline, Median [12]: −0.5 | KSS Observed Value at Visit, Mean [12]: 2.5 | KSS Observed Value at Visit, Median [12]: 2.5 | KSS Change from Baseline, Mean [13]: 1.3 | KSS Change from Baseline, Median [13]: 2.5 | KSS Observed Value at Visit, Mean [13]: 5.0 | KSS Observed Value at Visit, Median [13]: 5.5 | KSS Change from Baseline, Mean [14]: 0.5 | KSS Change from Baseline, Median [14]: 1.0 | KSS Observed Value at Visit, Mean [14]: 4.3 | KSS Observed Value at Visit, Median [14]: 4.0 | KSS Change from Baseline, Mean [15]: −1.5 | KSS Change from Baseline, Median [15]: −1.5 | KSS Observed Value at Visit, Mean [15]: 1.3 | KSS Observed Value at Visit, Median [15]: 1.0 | KSS Change from Baseline, Mean [16]: −1.5 | KSS Change from Baseline, Median [16]: −2.0 | KSS Observed Value at Visit, Mean [16]: 1.3 | KSS Observed Value at Visit, Median [16]: 1.0 | KSS Change from Baseline, Mean [17]: −1.0 | KSS Change from Baseline, Median [17]: −1.0 | KSS Observed Value at Visit, Mean [17]: 1.8 | KSS Observed Value at Visit, Median [17]: 1.5 | KSS Change from Baseline, Mean [18]: −1.0 | KSS Change from Baseline, Median [18]: −1.0 | KSS Observed Value at Visit, Mean [18]: 1.8 | KSS Observed Value at Visit, Median [18]: 1.5 | KSS Change from Baseline, Mean [19]: −1.5 | KSS Change from Baseline, Median [19]: −1.5 | KSS Observed Value at Visit, Mean [19]: 1.3 | KSS Observed Value at Visit, Median [19]: 1.0 | KSS Change from Baseline, Mean [20]: −1.3 | KSS Change from Baseline, Median [20]: −1.0 | KSS Observed Value at Visit, Mean [20]: 1.5 | KSS Observed Value at Visit, Median [20]: 1.5 | KSS Change from Baseline, Mean [21]: −1.3 | KSS Change from Baseline, Median [21]: −1.0 | KSS Observed Value at Visit, Mean [21]: 1.5 | KSS Observed Value at Visit, Median [21]: 1.5 | KSS Change from Baseline, Mean [22]: −0.8 | KSS Change from Baseline, Median [22]: −1.0 | KSS Observed Value at Visit, Mean [22]: 2.0 | KSS Observed Value at Visit, Median [22]: 2.0 | KSS Change from Baseline, Mean [23]: −1.3 | KSS Change from Baseline, Median [23]: −1.0 | KSS Observed Value at Visit, Mean [23]: 1.5 | KSS Observed Value at Visit, Median [23]: 1.0 | KSS Change from Baseline, Mean [24]: −1.5 | KSS Change from Baseline, Median [24]: −1.5 | KSS Observed Value at Visit, Mean [24]: 1.3 | KSS Observed Value at Visit, Median [24]: 1.0 | KSS Change from Baseline, Mean [25]: −1.3 | KSS Change from Baseline, Median [25]: −1.0 | KSS Observed Value at Visit, Mean [25]: 1.5 | KSS Observed Value at Visit, Median [25]: 1.5 | KSS ratings vs pooled placebo group (all time points over 9 hour infusion period): lower (greater alertness) | mean reduction in KSS from baseline vs placebo (single dose, NT1): greater for Compound A vs placebo
